Measurements: patent publication US6867320B2, “Substituted phenylalkanoic acid derivatives and use thereof” (Asahi Kasei Pharma Corporation, priority 2002, dated 2005)

Experiments:
[1] = test system: zymosan-stimulated footpad edema; experiment: Mouse zymosan-stimulated footpad edema reaction; assay type: in vivo; conditions: ICR female mice, oral 0.1 to 500 mg/kg, compared with positive control group
Method: 3. Suppressing Effect on Mouse Zymosan-stimulated Footpad Edema Reaction A suppressing effect on footpad edema caused by zymosan as an inflammatory stimulant was studied by the following method. Groups of ICR female mice (6- to 7-week old) each consisting of eight mice were used for the test. A test compound was suspended or dissolved in purified water containing 0.5% methylcellulose and orally administered to the test animals at 0.1 to 500 mg/0.2 ml/kg. To the control group, purified water containing 0.5% methylcellulose was administered in a similar manner, which was not added with a test compound. One hour after the administration of the test compound, 0.02 ml of a suspension of zymosan suspended in physiological saline (Otsuka Pharmaceutical) at 1 mg/ml was subcutaneously administered to right hind leg footpad of each mouse. One and two hours after the administration of the zymosan suspension, volume of the right hind leg footpad was measured by using an apparatus for measuring a volume of mouse hind leg footpad edema (Unicom). A difference of the volume of footpad measured above and the footpad volume before the administration of the test compound measured beforehand was regarded as a volume of the edema. For the volume of the edema at 1 hour or 2 hours after the zymosan administration, a graph was prepared by indicating time in abscissa and the edema volume in ordinate, and an edema volume AUC (area under the curve) was obtained up to 2 hours by calculation using the following equation. Edema volume AUC (1·hour)=1/2×1×A+1×(A+B)/2 • A: Edema volume 1 hour after zymosan administration • B: Edema volume 2 hour after zymosan administration A suppression ratio on edema of test compound was obtained by calculation using the following equation. Edema suppression ratio (%)=[1−B/A]×100 • A: Edema volume AUC of positive control • B: Edema volume AUC of test compound administered group (2) Measurement Results

[2] = test system: PGE2 production from IL-1β-stimulated MG-63 cells; experiment: Suppressing action on PGE2 production from IL-1β-stimulated MG-63 cells; assay type: cell-based; conditions: Homo sapiens, IL-1β 1 ng/ml, 18 hours, read-out: PGE2 production suppression ratio
Source text: 1. Suppressing Action on PGE2 Production from IL-1β-Stimulated MG-63 Cells (1) Method for Measurement
An action of suppressing PGE2 production caused by interleukin (IL) 1β as an inflammatory stimulant was studied by the following method. Cells of MG-63, which is a human osteosarcoma cell line (purchased from Dainippon Pharmaceutical), were suspended in EMEM medium (GIBCO) containing 10% fetal bovine serum (BioFluid), and then inoculated to each well of 96-well culture plate at a density of 2×10^4 cells/well and cultured overnight. The medium was changed to EMEM medium containing 0.5% fetal bovine serum, and then a test compound was added with each well. Human interleukin-1β (ENDOGEN) was further added as an inflammatory stimulant at a final concentration of 1 ng/ml. The cells were further cultured for 18 hours. The culture supernatant was collected, and the PGE2 concentration in the culture supernatant was measured by using EIA kit (CAYMAN). By using a well which was not added with the stimulant as a negative control and a well which was added only with the stimulant as a positive control, suppression ratios on PGE2 production were calculated from produced amounts of PGE2 in the well added with the test compound using the following equation. PGE2 production suppression ratio=[1−(C−B)/(A−B)]×100 • A: PGE2 production amount of positive control • B: PGE2 production amount of negative control • C: PGE2 production amount in well added with test compound

## 3-(3-{6-[(2-aminoacetyl)amino]Naphthalen-2-yl}-4-cyclopentyl-methyloxyphenyl)propionic acid [Compound 078]
[1]
  suppression of footpad edema caused by zymosan: suppressed footpad edema

## 3-[4-isopropyloxy-3-(1H-indol-5-yl)phenyl]propionate [Compound 173]
[1]
  suppression of footpad edema caused by zymosan: suppressed footpad edema

## O=C(O)CCc1ccc(OCCc2ccccc2F)c(-c2ccc3cc(O)ccc3c2)c1 [Compound 006, 3-{4-[2-(2-fluorophenyl)ethyloxy]-3-(6-hydroxynaphthalen-2-yl)phenyl}propionic acid]
[2]
  inhibition at 0.4 µM: ≥ 50%
[1]
  suppression of footpad edema caused by zymosan: suppressed footpad edema

## O=C(O)CCc1ccc(OCc2ccccc2F)c(-c2ccc3ccccc3c2)c1 [Compound 031, 3-[4-(2-fluorophenylmethyloxy)-3-(naphthalen-2-yl)phenyl]propionic acid]
[2]
  inhibition at 0.4 µM: ≥ 50%
[1]
  suppression of footpad edema caused by zymosan: suppressed footpad edema

## O=C(O)CCc1ccc(OCC2CCCC2)c(-c2ccc3cc(NC(=O)CO)ccc3c2)c1 [Compound 079, 3-(4-cyclopentylmethyloxy-3-{6-[2-(hydroxyacetyl)amino]naphthalen-2-yl}phenyl)propionic acid]
[1]
  suppression of footpad edema caused by zymosan: suppressed footpad edema

## O=C(O)CCc1ccc(OCCc2ccccc2F)c(-c2ccc3[nH]ccc3c2)c1 [Compound 106, 3-{4-[2-(2-fluorophenyl)ethyloxy]-3-(1H-indol-5-yl)phenyl}propionic acid]
[2]
  inhibition at 0.4 µM: ≥ 50%
[1]
  suppression of footpad edema caused by zymosan: suppressed footpad edema

## O=C(O)CCc1ccc(OCC2CCCC2)c(-c2cccc3[nH]ccc23)c1 [Compound 114, 3-[4-cyclopentylmethyloxy-3-(1H-indol-4-yl)phenyl]propionic acid]
[2]
  inhibition at 0.4 µM: ≥ 50%
[1]
  suppression of footpad edema caused by zymosan: suppressed footpad edema

## O=C(O)CCc1ccc(OCc2c(Cl)cccc2Cl)c(-c2ccc3[nH]ccc3c2)c1 [Compound 164, 3-[4-(2,6-dichlorophenylmethyloxy)-3-(1H-indol-5-yl)phenyl]propionic acid]
[2]
  inhibition at 0.4 µM: ≥ 50%
[1]
  suppression of footpad edema caused by zymosan: suppressed footpad edema

## COc1ccc(CCOc2ccc(CCC(=O)O)cc2-c2ccc3[nH]ccc3c2)cc1 [Compound 207, 3-{3-(1H-indol-5-yl)-4-[2-(4-methoxyphenyl)ethyloxy]phenyl}propionic acid]
[2]
  inhibition at 0.4 µM: ≥ 50%
[1]
  suppression of footpad edema caused by zymosan: suppressed footpad edema

## CN(C)c1ccc(CCOc2ccc(CCC(=O)O)cc2-c2ccc3[nH]ccc3c2)cc1 [Compound 215, 3-(4-{2-[4-(N,N-dimethylamino)phenyl]Ethyloxy}-3-[1H-indol-5-yl]phenyl)propionic acid]
[2]
  inhibition at 0.4 µM: ≥ 50%
[1]
  suppression of footpad edema caused by zymosan: suppressed footpad edema

## O=C(O)CCc1ccc(OCCOc2ccccc2)c(-c2ccc3[nH]ccc3c2)c1 [Compound 222, 3-{3-(1H-indol-5-yl)-4-[2-(phenyloxy)ethyloxy]phenyl}propionic acid]
[2]
  inhibition at 0.4 µM: ≥ 50%
[1]
  suppression of footpad edema caused by zymosan: suppressed footpad edema

## O=C(O)CCc1ccc(OCCOc2ccccc2Cl)c(-c2ccc3[nH]ccc3c2)c1 [Compound 224, 3-{4-[2-(2-chlorophenyloxy)ethyloxy]-3-(1H-indol-5-yl)phenyl}propionic acid]
[2]
  inhibition at 0.4 µM: ≥ 50%
[1]
  suppression of footpad edema caused by zymosan: suppressed footpad edema

## CCCCOc1ccc(CCC(=O)O)cc1-c1ccc2nc(N)sc2c1 [Compound 291, 3-[3-(2-aminobenzothiazol-6-yl)-4-butyloxyphenyl]propionic acid]
[2]
  inhibition at 0.4 µM: ≥ 50%
[1]
  suppression of footpad edema caused by zymosan: suppressed footpad edema

## CC(C)(C)c1ccc(COc2ccc(CCC(=O)O)cc2-c2ccc3[nH]ccc3c2)cc1 [Compound 329]
[1]
  suppression of footpad edema caused by zymosan: suppressed footpad edema

## Cc1cc(CCC(=O)O)cc(-c2ccc3ccccc3c2)c1OC1CCCC1 [Compound 570, 3-[4-cyclopentyloxy-3-methyl-5-(naphthalen-2-yl)phenyl]propionic acid]
[2]
  inhibition at 0.4 µM: ≥ 50%

## Cc1cc(CCC(=O)O)cc(-c2ccc3[nH]ccc3c2)c1OC1CCCC1 [Compound 571, 3-[4-cyclopentyloxy-3-(1H-indol-5-yl)-5-methylphenyl]propionic acid]
[2]
  inhibition at 0.4 µM: ≥ 50%

## Cc1n[nH]c2ccc(-c3cc(CCC(=O)O)ccc3OC3CCCC3)cc12 [Compound 574, 3-[4-cyclopentyloxy-3-(3-methyl-1H-indazol-5-yl)phenyl]propionic acid]
[2]
  inhibition at 0.4 µM: ≥ 50%

## Cc1nn(C)c2ccc(-c3cc(CCC(=O)O)ccc3OC3CCCC3)cc12 [Compound 576, 3-[4-cyclopentyloxy-3-(1,3-dimethyl-1H-indazol-5-yl)phenyl]propionic acid]
[2]
  inhibition at 0.4 µM: ≥ 50%

## COc1cc(CCC(=O)O)cc(-c2ccc3[nH]ccc3c2)c1OC1CCCC1 [Compound 578, 3-[4-cyclopentyloxy-3-(1H-indol-5-yl)-5-methoxyphenyl]propionic acid]
[2]
  inhibition at 0.4 µM: ≥ 50%

## COc1cc(CCC(=O)O)cc(-c2ccc3c(ccn3C)c2)c1OC1CCCC1 [Compound 580, 3-[4-cyclopentyloxy-3-methoxy-5-(1-methyl-1H-indol-5-yl)phenyl]propionic acid]
[2]
  inhibition at 0.4 µM: ≥ 50%

## CCn1ccc2cc(-c3cc(CCC(=O)O)cc(OC)c3OC3CCCC3)ccc21 [Compound 582, 3-[4-cyclopentyloxy-3-(1-ethyl-1H-indol-5-yl)-5-methoxyphenyl]propionic acid]
[2]
  inhibition at 0.4 µM: ≥ 50%

## Cc1cc2cc(-c3cc(CCC(=O)O)ccc3OCC3CCCC3)ccc2[nH]1 [Compound 584, 3-[4-cyclopentylmethyloxy-3-(2-methyl-1H-indol-5-yl)phenyl]propionic acid]
[2]
  inhibition at 0.4 µM: ≥ 50%

## CNc1cc(CCC(=O)O)cc(-c2ccc3c(cnn3C)c2)c1OC1Cc2ccccc2C1 [Compound 587, 3-[4-(indan-2-yloxy)-3-(N-methylamino)-5-(1-methyl-1H-indazol-5-yl)phenyl]propionic acid]
[2]
  inhibition at 0.4 µM: ≥ 50%

## CCCOc1ccc(CCC(=O)O)cc1-c1ccc2[nH]ccc2c1 [Compound 588, 3-[4-n-propyloxy-3-(1H-indol-5-yl)phenyl]propionic acid]
[2]
  inhibition at 0.4 µM: ≥ 50%
